Experiments:
[1] = test system: NF-κB pathway in THP-1 dual cells; experiment: THP-1 Dual reporter assay, NF-κB pathway (SEAP); format: cell-based; conditions: Homo sapiens, THP1-Dual; 18 h stimulation, absorbance; read-out: THP1 Dual EC50 (μM) NFkB
Method: (§1) Compounds of the present invention were tested for their activity using THP-1 dual cells (Invivogen, cat no. thpd-nfis) allowing for simultaneous study of NF-κB pathway and the interferon regulatory factor (IRF) pathway. THP-1 dual cells contain luciferase reporter gene under the control of an ISG54 (interferon-stimulated gene) minimal promoter in conjunction with five interferon-stimulated response elements and a secreted embryonic alkaline phosphatase reporter gene under the control an IFN (interferon)-β minimal promoter fused to five copies of the NF-κB consensus transcriptional response element with three copies of the c-Rel binding site. Following 18 h of stimulation with STING agonist, medium was collected and transferred onto fresh cell culture plate. To verify activity of the IRF pathway, luminescence activity was measured with standard laboratory plate reader immediately after addition 10 μl of the medium to 50 μl (or 40 μl) of luminescence reagent (Invivogen, cat. No. rep-qlc2). To verify activity of NF-κB pathway, 20 μl (or 10 μl) of the medium was mixed with 80 μl of a detection medium (Invivogen, cat. No. rep-qb2) and incubated for 2 hours (or 1 hour) at 37° C. in a humidified atmosphere containing 5% CO2. Next, absorbance at 630 nm (or 655 nm) was recorded using standard laboratory plate reader.

human STING = human STING (Homo sapiens, UniProt Q86WV6); experiment: Fluorescence Thermal Shift assay (hSTING FTS binding assay); conditions: STING 0.1 mg/ml, 20 min preincubation, SyproOrange
Method: Compounds of the present invention were tested for binding to human STING in Fluorescence Thermal Shift assay. STING was preincubated with the compounds for 20 minutes in 50 mM Hepes, 150 mM NaCl, pH 7.5 in 16 μl volume, following by adding 4 μl of SyproOrange dye dilution (ThermoFisher, cat no. S-6651). Final STING concentration was 0.1 mg/ml. Thermal unfolding was performed in Real-Time PCR QuantStudio 6 Flex System (Applied Biosystems), from 25 to 99° C., with continuous ramp mode and ramp rate 0.033° C./s. The data were analyzed using Protein Thermal Shift Software (ThermoFisher).

[2] = test system: interferon regulatory factor (IRF) pathway in THP-1 dual cells; experiment: THP-1 Dual reporter assay, IRF pathway (luciferase); format: cell-based; conditions: Homo sapiens, THP1-Dual; 18 h stimulation, luminescence
Method: as §1

Sequence of human STING (Q86WV6 whole entry H232R): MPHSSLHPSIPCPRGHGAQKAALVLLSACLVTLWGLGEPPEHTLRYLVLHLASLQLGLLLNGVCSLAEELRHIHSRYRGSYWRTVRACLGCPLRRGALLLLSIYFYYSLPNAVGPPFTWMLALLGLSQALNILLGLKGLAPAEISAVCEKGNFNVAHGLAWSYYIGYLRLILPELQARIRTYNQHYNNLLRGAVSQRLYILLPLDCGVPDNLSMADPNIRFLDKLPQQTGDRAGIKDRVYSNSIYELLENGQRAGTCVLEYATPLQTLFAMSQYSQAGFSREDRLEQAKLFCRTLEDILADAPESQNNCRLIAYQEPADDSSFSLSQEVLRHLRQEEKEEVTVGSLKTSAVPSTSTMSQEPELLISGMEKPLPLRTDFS

## Cc1cc(CN(Cc2cn(C)c3ccccc3c2=O)[C@H]2CCCN(c3ccc(F)nc3)C2)ccn1 [Example 16, 3-({[(3S)-1-(6-fluoropyridin-3-yl)piperidin-3-yl][(2-methylpyridin-4-yl)methyl]amino}methyl)-1-methyl-1,4-dihydroquinolin-4-one]
[1]
  EC50: 1 to 10 µM
Human STING
  hSTING FTS binding assay (ΔT C.°): + (ΔTm<10° C.)
[2]
  EC50: 1 to 10 µM

## Cc1cc(CN(Cc2c[nH]c3ccccc3c2=O)[C@H]2CCCN(c3cccnc3)C2)ccn1 [Example 35, 3-({[(2-methylpyridin-4-yl)methyl][(3S)-1-(pyridin-3-yl)piperidin-3-yl]amino}methyl)-1,4-dihydroquinolin-4-one]
[1]
  EC50: 1 to 10 µM
Human STING
  hSTING FTS binding assay (ΔT C.°): ++ (ΔTm>10° C.)
[2]
  EC50: ≤ 1 µM

## Cc1cc(CN(Cc2cn(C)c3ccccc3c2=O)C2CN(c3cccnc3)CC(F)(F)C2)ccn1 (stereo not drawn) [Example 34, 3-({[5,5-difluoro-1-(pyridin-3-yl)piperidin-3-yl][(2-methylpyridin-4-yl)methyl]amino}methyl)-1-methyl-1,4-dihydroquinolin-4-one]
[1]
  EC50: ≥ 10 µM
Human STING
  hSTING FTS binding assay (ΔT C.°): + (ΔTm<10° C.)
[2]
  EC50: ≥ 10 µM

## COC(=O)C1CCN(c2ccc3c(=O)c(CN(Cc4ccnc(C)c4)[C@H]4CCCN(c5cccnc5)C4)cn(C)c3c2)CC1 [Example 29, Methyl 1-[1-methyl-3-({[(2-methylpyridin-4-yl)methyl][(3S)-1-(pyridin-3-yl)piperidin-3-yl]amino}methyl)-4-oxo-1,4-dihydroquinolin-7-yl]piperidine-4-carboxylate]
[1]
  EC50: ≤ 1 µM
Human STING
  hSTING FTS binding assay (ΔT C.°): ++ (ΔTm>10° C.)
[2]
  EC50: ≤ 1 µM

## COc1cc(CN(Cc2cn(C)c3ccccc3c2=O)C2CCCN(c3cnccn3)C2)ccn1 (stereo not drawn) [Example 4, 3-({[(2-methoxypyridin-4-yl)methyl][1-(pyrazin-2-yl)piperidin-3-yl]amino}methyl)-1-methyl-1,4-dihydroquinolin-4-one]
[1]
  EC50: 1 to 10 µM
Human STING
  hSTING FTS binding assay (ΔT C.°): + (ΔTm<10° C.)
[2]
  EC50: 1 to 10 µM

## COc1cc(CN(Cc2cn(C3CC3)c3cc(N4CCN(C)CC4)c(F)cc3c2=O)[C@H]2CCCN(c3cccnc3)C2)ccn1 [Example 9, 1-cyclopropyl-6-fluoro-3-({[(2-methoxypyridin-4-yl)methyl][(3S)-1-(pyridin-3-yl)piperidin-3-yl]amino}methyl)-7-(4-methylpiperazin-1-yl)-1,4-dihydroquinolin-4-one]
[1]
  EC50: ≤ 1 µM
Human STING
  hSTING FTS binding assay (ΔT C.°): ++ (ΔTm>10° C.)
[2]
  EC50: ≤ 1 µM

## Cc1cc(CN(Cc2cn(C)c3cc(N4CCN(C)CC4)ccc3c2=O)[C@H]2CCCN(c3cccnc3)C2)ccn1 [Example 18, 1-methyl-7-(4-methylpiperazin-1-yl)-3-({[(2-methylpyridin-4-yl)methyl][(3S)-1-(pyridin-3-yl)piperidin-3-yl]amino}methyl)-1,4-dihydroquinolin-4-one]
[1]
  EC50: ≤ 1 µM
Human STING
  hSTING FTS binding assay (ΔT C.°): ++ (ΔTm>10° C.)
[2]
  EC50: ≤ 1 µM

## Cc1cc(CN(Cc2cn(C)c3cc(Cl)c(F)cc3c2=O)[C@H]2CCCN(c3cccnc3)C2)ccn1 [Example 25, 7-chloro-6-fluoro-1-methyl-3-({[(2-methylpyridin-4-yl)methyl][(3S)-1-(pyridin-3-yl)piperidin-3-yl]amino}methyl)-1,4-dihydroquinolin-4-one]
[1]
  EC50: ≤ 1 µM
Human STING
  hSTING FTS binding assay (ΔT C.°): ++ (ΔTm>10° C.)
[2]
  EC50: ≤ 1 µM

## Cc1cc(CN(Cc2cn(C)c3ccccc3c2=O)[C@H]2CCCN(c3ccnc(Cl)n3)C2)ccn1 [Example 19, 3-({[(3S)-1-(2-chloropyrimidin-4-yl)piperidin-3-yl][(2-methylpyridin-4-yl)methyl]amino}methyl)-1-methyl-1,4-dihydroquinolin-4-one]
Human STING
  hSTING FTS binding assay (ΔT C.°): + (ΔTm<10° C.)

## Cc1ccc(N2CCC[C@H](N(Cc3ccnc(C)c3)Cc3cn(C4CC4)c4cc(N5CCN(CC(F)F)CC5)c(F)cc4c3=O)C2)cn1 [Example 48, 1-cyclopropyl-7-[4-(2,2-difluoroethyl)piperazin-1-yl]-6-fluoro-3-({[(3S)-1-(6-methylpyridin-3-yl)piperidin-3-yl][(2-methylpyridin-4-yl)methyl]amino}methyl)-1,4-dihydroquinolin-4-one]
[1]
  EC50: ≤ 1 µM
Human STING
  hSTING FTS binding assay (ΔT C.°): ++ (ΔTm>10° C.)
[2]
  EC50: ≤ 1 µM

## Cc1cc(CN(Cc2cn(C)c3ccccc3c2=O)[C@H]2CCCN(c3ccccn3)C2)ccn1 [Example 13, 1-methyl-3-({[(2-methylpyridin-4-yl)methyl][(3S)-1-(pyridin-2-yl)piperidin-3-yl]amino}methyl)-1,4-dihydroquinolin-4-one]
[1]
  EC50: 1 to 10 µM
Human STING
  hSTING FTS binding assay (ΔT C.°): + (ΔTm<10° C.)
[2]
  EC50: 1 to 10 µM

## Cc1ccc(N2CCC[C@H](N(Cc3ccnc(C)c3)Cc3cn(C(C)C)c4nc(Cl)c(F)cc4c3=O)C2)cn1 [Example 61, 7-chloro-6-fluoro-3-({[(3S)-1-(6-methylpyridin-3-yl)piperidin-3-yl][(2-methylpyridin-4-yl)methyl]amino}methyl)-1-(propan-2-yl)-1,4-dihydro-1,8-naphthyridin-4-one]
[1]
  EC50: ≤ 1 µM
[2]
  EC50: ≤ 1 µM

## Cc1ccc(N2CCC[C@H](N(Cc3ccnc(C)c3)Cc3cn(C)c4ccccc4c3=O)C2)cn1 [Example 7, 1-methyl-3-({[(3S)-1-(6-methylpyridin-3-yl)piperidin-3-yl][(2-methylpyridin-4-yl)methyl]amino}methyl)-1,4-dihydroquinolin-4-one]
[1]
  EC50: ≤ 1 µM
[2]
  EC50: ≤ 1 µM

## Cc1cc(CN(Cc2cn(C)c3ccccc3c2=O)[C@H]2CCCN(c3cc(Cl)ncn3)C2)ccn1 [Example 17, 3-({[(3S)-1-(6-chloropyrimidin-4-yl)piperidin-3-yl][(2-methylpyridin-4-yl)methyl]amino}methyl)-1-methyl-1,4-dihydroquinolin-4-one]
[1]
  EC50: 1 to 10 µM
[2]
  EC50: 1 to 10 µM

## Cc1cc(CN(Cc2cn(C)c3ccccc3c2=O)[C@H]2CCCN(c3ccnc(Cl)n3)C2)ccn1 [Example 54, 3-({[(3S)-1-(2-chloropyrimidin-4-yl)piperidin-3-yl][(2-methylpyridin-4-yl)methyl]amino}methyl)-1-methyl-1,4-dihydroquinolin-4-one]
[1]
  EC50: 1 to 10 µM
[2]
  EC50: 1 to 10 µM

## Cc1ccc(N2CCC[C@H](N(Cc3ccnc(C)c3)Cc3cn(C4CC4)c4cc(C5=CCCCC5)c(F)cc4c3=O)C2)cn1 [Example 57, 7-(cyclohex-1-en-1-yl)-1-cyclopropyl-6-fluoro-3-({[(3S)-1-(6-methylpyridin-3-yl)piperidin-3-yl][(2-methylpyridin-4-yl)methyl]amino}methyl)-1,4-dihydroquinolin-4-one]
[1]
  EC50: ≤ 1 µM
[2]
  EC50: ≤ 1 µM

## Cc1ccc(N2CCC[C@H](N(Cc3ccnc(C)c3)Cc3cn(C4CC4)c4cc(C5COCCN5)ccc4c3=O)C2)cn1 (stereo partly drawn) [Example 64, 1-Cyclopropyl-3-({[(3S)-1-(6-methylpyridin-3-yl)piperidin-3-yl][(2-methylpyridin-4-yl)methyl]amino}methyl)-7-(morpholin-3-yl)-1,4-dihydroquinolin-4-one]
[1]
  EC50: ≤ 1 µM
[2]
  EC50: ≤ 1 µM

## COc1nc2c(cc1F)c(=O)c(CN(Cc1ccnc(C)c1)[C@H]1CCCN(c3ccc(C)nc3)C1)cn2C(C)C [Example 62, 6-fluoro-7-methoxy-3-({[(3S)-1-(6-methylpyridin-3-yl)piperidin-3-yl][(2-methylpyridin-4-yl)methyl]amino}methyl)-1-(propan-2-yl)-1,4-dihydro-1,8-naphthyridin-4-one]
[1]
  EC50: ≤ 1 µM
[2]
  EC50: ≤ 1 µM

## Cc1ccc(N2CCC[C@H](N(Cc3ccnc(C)c3)Cc3cn(C)c4c(Br)cccc4c3=O)C2)cn1 [Example 60, 8-bromo-1-methyl-3-({[(3S)-1-(6-methylpyridin-3-yl)piperidin-3-yl][(2-methylpyridin-4-yl)methyl]amino}methyl)-1,4-dihydroquinolin-4-one]
[1]
  EC50: ≤ 1 µM
[2]
  EC50: ≤ 1 µM

## Cc1cc(CN(Cc2cn(C3CC3)c3cc(Cl)c(F)cc3c2=O)[C@H]2CCCN(c3cccnc3)C2)ccn1 [Example 33, 7-chloro-1-cyclopropyl-6-fluoro-3-({[(2-methylpyridin-4-yl)methyl][(3S)-1-(pyridin-3-yl)piperidin-3-yl]amino}methyl)-1,4-dihydroquinolin-4-one]
[1]
  EC50: ≤ 1 µM
[2]
  EC50: ≤ 1 µM

## Cc1cc(CN(Cc2cn(C)c3ccccc3c2=O)[C@H]2CCCN(c3cccnc3)C2)n(C)n1 [Example 63, 3-({[(1,3-dimethyl-1H-pyrazol-5-yl)methyl][(3S)-1-(pyridin-3-yl)piperidin-3-yl]amino}methyl)-1-methyl-1,4-dihydroquinolin-4-one]
[1]
  EC50: ≥ 10 µM
[2]
  EC50: 1 to 10 µM

Reference: patent publication US12344606B2, “Next-generation modulators of stimulator of interferon genes (STING)” (RYVU THERAPEUTICS S.A., priority 2019, dated 2025)
